Patent publication US20240246967A1, “AXL COMPOUNDS” (ARCUS BIOSCIENCES, INC., priority 2021, published 2024)

Tests used:
[1] = target: T1, human TYRO3 (Homo sapiens, UniProt Q06418); test: HTRF KinEASE-TK biochemical potency assay, TYRO3; conditions: 1 nM TYRO3, 700 μM ATP, 800 nM TK Substrate-biotin
T1 construct: purchased Invitrogen
T1 sequence (Q06418 41-890): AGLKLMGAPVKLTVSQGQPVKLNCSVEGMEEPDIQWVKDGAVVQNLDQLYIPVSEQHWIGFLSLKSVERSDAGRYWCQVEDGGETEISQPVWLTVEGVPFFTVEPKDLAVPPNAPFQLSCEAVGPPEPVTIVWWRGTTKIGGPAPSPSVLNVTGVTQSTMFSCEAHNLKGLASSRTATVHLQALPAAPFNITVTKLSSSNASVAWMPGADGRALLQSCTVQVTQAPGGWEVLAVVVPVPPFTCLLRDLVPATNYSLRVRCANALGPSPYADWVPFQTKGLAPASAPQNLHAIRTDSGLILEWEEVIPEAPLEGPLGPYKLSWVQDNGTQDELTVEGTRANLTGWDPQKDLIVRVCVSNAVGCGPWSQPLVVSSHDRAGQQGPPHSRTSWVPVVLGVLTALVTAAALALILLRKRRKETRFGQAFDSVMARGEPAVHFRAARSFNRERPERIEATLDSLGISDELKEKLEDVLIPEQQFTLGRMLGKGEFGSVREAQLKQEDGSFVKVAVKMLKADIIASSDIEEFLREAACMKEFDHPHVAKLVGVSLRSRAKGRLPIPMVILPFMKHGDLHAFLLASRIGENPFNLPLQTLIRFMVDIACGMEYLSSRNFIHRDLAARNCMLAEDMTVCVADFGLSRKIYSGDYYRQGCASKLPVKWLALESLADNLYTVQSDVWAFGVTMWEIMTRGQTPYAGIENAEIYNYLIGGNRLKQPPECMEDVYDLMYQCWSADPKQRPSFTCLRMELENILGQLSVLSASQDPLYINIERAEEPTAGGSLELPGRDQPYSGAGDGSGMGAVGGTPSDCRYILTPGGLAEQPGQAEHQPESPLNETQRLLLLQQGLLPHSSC
Description: (§1) Purified recombinant human AXL, TYRO3 and MER proteins were purchased from Invitrogen™. 10 nM AXL, 2 nM TYRO3 or MER were incubated with varying concentrations of compounds in 50 mM HEPES, pH 7.4, 10 mM MgCl2, 0.01% BSA, 1 mM DTT and 2% DMSO in a total volume of 20 μl in a 384-well microplate (Corning™ #3640) at RT for 1 h. The AXL, TYRO3 and MER enzymatic reaction was initiated by transferring 10 μl of enzyme and compound mixture into 10 μl of 1.6 μM TK Substrate-biotin (HTRF® KinEASE-TK kit, Cisbio) and 1400 μM ATP pre-incubated in 50 mM HEPES, pH 7.4, 10 mM MgCl2, 0.01% BSA, 1 mM DTT in a 384-well microplate (Corning™ #3640) at RT, giving the final reaction conditions: 5 nM AXL, 1 nM TYRO3 or MER, 800 nM TK Substrate-biotin and 700 μM ATP in 50 mM HEPES, pH 7.4, 10 mM MgCl2, 0.01% BSA, 1 mM DTT and 1% DMSO with varying concentrations of compounds. Following 2 h incubation at RT, the AXL, TYRO3 and MER enzymatic reaction was stopped by transfer of 10 μl of reaction into 10 μl of detection mix (400 nM Streptavidin-XL665, 200-fold dilution TK Antibody-Cryptate and detection buffer, HTRF® KinEASE-TK kit, Cisbio) in a white 384-well microplate (Perkin Elmer, OptiPlate 384). After 1 h incubation at RT, the plate was put into a plate reader (Evision) to read at 665/620 nm (acceptor/donor) for HTRF. The value of the DMSO blank (MIN inhibition=100% activity) was used as a negative control. The positive control was established by adding 5 μl of enzyme and DMSO mixture into 10 μl of detection mix followed by addition of 5 μl of TK Substrate-biotin and ATP mixture (MAX inhibition=0% activity). To calculate the percent activity, Equation 1 was used. Ratio 665/620 is the value at a given compound concentration: […]

[2] = target: T2, Axl (Homo sapiens, UniProt P30530); test: HTRF KinEASE-TK biochemical potency assay, AXL; parameters: purchased Invitrogen; conditions: 5 nM AXL, 700 μM ATP, 800 nM TK Substrate-biotin
T2 sequence (P30530 26-894): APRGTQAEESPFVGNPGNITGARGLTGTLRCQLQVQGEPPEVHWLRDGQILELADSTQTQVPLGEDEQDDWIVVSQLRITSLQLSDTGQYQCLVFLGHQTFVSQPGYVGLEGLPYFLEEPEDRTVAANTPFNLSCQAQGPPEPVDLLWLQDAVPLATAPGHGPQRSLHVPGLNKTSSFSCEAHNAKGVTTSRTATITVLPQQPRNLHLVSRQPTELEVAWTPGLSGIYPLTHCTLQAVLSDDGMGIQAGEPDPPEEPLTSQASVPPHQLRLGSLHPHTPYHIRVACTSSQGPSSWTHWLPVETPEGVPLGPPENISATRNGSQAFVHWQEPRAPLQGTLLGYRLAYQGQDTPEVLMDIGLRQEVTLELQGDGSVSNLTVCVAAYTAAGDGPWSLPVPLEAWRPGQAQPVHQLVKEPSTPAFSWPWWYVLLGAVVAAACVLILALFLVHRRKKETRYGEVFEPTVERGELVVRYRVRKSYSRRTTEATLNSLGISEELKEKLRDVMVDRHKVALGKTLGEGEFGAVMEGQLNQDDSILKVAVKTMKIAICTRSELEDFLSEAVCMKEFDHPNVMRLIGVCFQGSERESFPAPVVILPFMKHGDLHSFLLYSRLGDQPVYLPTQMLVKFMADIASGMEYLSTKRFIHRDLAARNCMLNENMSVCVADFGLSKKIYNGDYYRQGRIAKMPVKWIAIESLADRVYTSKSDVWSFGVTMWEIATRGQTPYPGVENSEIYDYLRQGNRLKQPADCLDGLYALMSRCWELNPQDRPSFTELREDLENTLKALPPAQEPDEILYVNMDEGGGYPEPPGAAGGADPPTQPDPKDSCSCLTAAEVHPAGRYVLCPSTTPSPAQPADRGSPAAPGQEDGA
Description: as §1

IC50 [1]	IC50 [2]	Compound
100 to 1000 nM	< 100 nM	COCCN1CCc2ccc(-c3cnc4[nH]nc(-c5ccc(C(C)(C)O)c(Cl)c5)c4c3)cc2CC1 [Example 34, 2-(2-Chloro-4-(5-(3-(2-methoxyethyl)-2,3,4,5-tetrahydro-1H-benzo[d]azepin-7-yl)-1H-pyrazolo[3,4-b]pyridin-3-yl)phenyl)propan-2-ol]
100 to 1000 nM	< 100 nM	CS(=O)(=O)N1CCC(c2n[nH]c3ncc(-c4ccc5c(c4)CCC(N4CCCC4)CC5)cc23)CC1 (centres unmarked) [Example 23, 1-Methanesulfonyl-4-{5-[7-(pyrrolidin-1-yl)-6,7,8,9-tetrahydro-5H-benzo[7]annulen-2-yl]-1H-pyrazolo[3,4-b]pyridin-3-yl}piperidine]
< 100 nM	< 100 nM	C[C@@H]1CCCN1C1(C)CCc2ccc(-c3cnc4[nH]nc(-c5ccc(S(=O)(=O)C6CC6)c(F)c5)c4c3)cc2CC1 (stereo partly drawn) [Example 25, (2R)-1-(2-{3-[4-(Cyclopropanesulfonyl)-3-fluorophenyl]-1H-pyrazolo[3,4-b]pyridin-5-yl}-7-methyl-6,7,8,9-tetrahydro-5H-benzo[7]annulen-7-yl)-2-methylpyrrolidine]
100 to 1000 nM	< 100 nM	COC1CCN(S(=O)(=O)c2ccc(-c3n[nH]c4ncc(-c5ccc6c(c5)CCC(C)(N5CCC[C@H]5C)CC6)cc34)cc2)CC1 (stereo partly drawn) [Example 103, 3-(4-((4-Methoxypiperidin-1-yl)sulfonyl)phenyl)-5-(7-methyl-7-((R)-2-methylpyrrolidin-1-yl)-6,7,8,9-tetrahydro-5H-benzo[7]annulen-2-yl)-1H-pyrazolo[3,4-b]pyridine]
100 to 1000 nM	< 100 nM	O=C([C@@H]1CCCN1)N1CCc2ccc(-c3cnc4[nH]nc(-c5ccc(S(=O)(=O)C6CC6)cc5)c4c3)cc2CC1 [Example 112, 7-{3-[4-(Cyclopropanesulfonyl)phenyl]-1H-pyrazolo[3,4-b]pyridin-5-yl}-3-[(2S)-pyrrolidine-2-carbonyl]-2,3,4,5-tetrahydro-1H-3-benzazepine]
100 to 1000 nM	< 100 nM	CC1(N[C@H]2CCOC2)CCc2ccc(-c3cnc4[nH]nc(-c5ccc(S(=O)(=O)C6CC6)cc5)c4c3)cc2CC1 (stereo partly drawn) [Example 115, (3S)-N-(2-{3-[4-(Cyclopropanesulfonyl)phenyl]-1H-pyrazolo[3,4-b]pyridin-5-yl}-7-methyl-6,7,8,9-tetrahydro-5H-benzo[7]annulen-7-yl)oxolan-3-amine]
> 1000 nM	< 100 nM	C[C@@H]1CCCN1C1(C)CCc2ccc(-c3cnc4[nH]nc(-c5ccc(C(=O)N[C@@H]6CCOC6)cc5)c4c3)cc2CC1 (stereo partly drawn) [Example 99, 4-(5-{7-Methyl-7-[(2R)-2-methylpyrrolidin-1-yl]-6,7,8,9-tetrahydro-5H-benzo[7]annulen-2-yl}-1H-pyrazolo[3,4-b]pyridin-3-yl)-N-[(3R)-oxolan-3-yl]benzamide]
< 100 nM	< 100 nM	Cc1cc(-c2n[nH]c3ncc(-c4ccc5c(c4)CC[C@@H](N4CCCC4)CC5)cc23)cc(C)c1C(N)=O [Example 49, 2,6-Dimethyl-4-{5-[(7S)-7-(pyrrolidin-1-yl)-6,7,8,9-tetrahydro-5H-benzo[7]annulen-2-yl]-1H-pyrazolo[3,4-b]pyridin-3-yl}benzamide]
100 to 1000 nM	< 100 nM	CC(C)(O)c1ccc(-c2n[nH]c3ncc(-c4ccc5c(c4)CCN(C4CCCC4)CC5)cc23)cc1C(F)(F)F [Example 16, 2-{4-[5-(3-Cyclopentyl-2,3,4,5-tetrahydro-1H-3-benzazepin-7-yl)-1H-pyrazolo[3,4-b]pyridin-3-yl]-2-(trifluoromethyl)phenyl}propan-2-ol]
100 to 1000 nM	100 to 1000 nM	CC(C)(O)c1ccc(-c2n[nH]c3ncc(-c4ccc5c(n4)CCC(N4CCCC4)CC5)cc23)cc1Cl (centres unmarked) [Example 60, 2-(2-Chloro-4-{5-[7-(pyrrolidin-1-yl)-5H,6H,7H,8H,9H-cyclohepta[b]pyridin-2-yl]-1H-pyrazolo[3,4-b]pyridin-3-yl}phenyl)propan-2-ol]
